The source made the active and inactive calls.
Experiments:
[1] = biological target: T1, Rac GTPase-activating protein 1 (Homo sapiens, UniProt Q9H0H5); experiment: blockers of MgcRacGAP-driven Rac1 GTP hydrolysis – biochemical, ADP Hunter fluorescence, primary and confirmatory, confirmation (AID 624330); type: functional
T1 sequence (Q9H0H5 whole entry): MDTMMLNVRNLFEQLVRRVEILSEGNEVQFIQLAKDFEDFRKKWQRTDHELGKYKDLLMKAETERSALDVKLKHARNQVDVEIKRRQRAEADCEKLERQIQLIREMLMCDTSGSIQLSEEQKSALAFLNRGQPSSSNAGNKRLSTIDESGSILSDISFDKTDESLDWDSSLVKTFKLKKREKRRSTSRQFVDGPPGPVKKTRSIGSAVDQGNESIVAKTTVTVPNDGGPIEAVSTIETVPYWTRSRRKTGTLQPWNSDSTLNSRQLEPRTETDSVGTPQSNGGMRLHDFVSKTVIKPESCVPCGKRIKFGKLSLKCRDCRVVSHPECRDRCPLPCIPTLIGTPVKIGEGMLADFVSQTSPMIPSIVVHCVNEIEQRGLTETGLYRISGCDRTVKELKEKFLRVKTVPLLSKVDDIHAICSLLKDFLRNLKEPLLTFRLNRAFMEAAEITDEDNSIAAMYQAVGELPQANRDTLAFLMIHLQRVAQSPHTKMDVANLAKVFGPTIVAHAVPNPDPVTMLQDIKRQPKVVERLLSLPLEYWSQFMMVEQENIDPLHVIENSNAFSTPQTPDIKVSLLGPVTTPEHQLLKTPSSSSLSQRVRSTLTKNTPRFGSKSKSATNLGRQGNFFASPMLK

[2] = NIH3T3 cell viability loss – ATP luminescence, mouse fibroblasts, counter-screen, dose response (AID 2010); type: functional, cell-based;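 note: cells exposed to compound for about 90 hours before reading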
[3] = Trypanosoma cruzi growth suppression in host cells – NIH3T3 host cells, beta-gal luminescence, confirmation (AID 2044); type: functional, cell-based;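 note: intracellular parasites grown in NIH/3T3 mouse fibroblasts as host cells; luminescent beta-galactosidase reporter signal from transgenic T. cruzi replicating inside host cells; inhibitors lower the luminescence signal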
[4] = viability of uninfected HEp-2 cells – cell-based, HTS, cytotoxicity control for RSV inhibitor project, dose response (AID 2410); type: functional; conditions: human respiratory syncytial virus
[5] = Luminescence Cell-Based Dose Response HTS to Identify Inhibitors of 5'UTR Stem-Loop Driven Prion Protein mRNA Translation in H4 Neuroglioblastoma Cells. [Related pubchem assays: 1827 (Project Summary), 1813 (Primary HTS)]; type: functional
[6] = luciferase reporter signal suppression in cells – H4 neuroglioma cells, luminescence, dose response (AID 1990); type: functional, cell-based
[7] = alpha-synuclein stem-loop luciferase translation blockers – H4 neuroglioma cells, luminescence, confirmation (AID 1988); type: functional, cell-based
[8] = Luminescence Cell-Based Dose Retest to Confirm Inhibitors of Cancer Stem Cells. [Related pubchem assays (depositor defined):AID2717, AID2721]; type: functional; conditions: Homo sapiens
[9] = biological target: T2, Cytochrome P450 1A2 (Homo sapiens, UniProt P05177);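 note: PubChem cytochrome P450 panel assay, CYP1A2 panel member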
T2 sequence (P05177 whole entry): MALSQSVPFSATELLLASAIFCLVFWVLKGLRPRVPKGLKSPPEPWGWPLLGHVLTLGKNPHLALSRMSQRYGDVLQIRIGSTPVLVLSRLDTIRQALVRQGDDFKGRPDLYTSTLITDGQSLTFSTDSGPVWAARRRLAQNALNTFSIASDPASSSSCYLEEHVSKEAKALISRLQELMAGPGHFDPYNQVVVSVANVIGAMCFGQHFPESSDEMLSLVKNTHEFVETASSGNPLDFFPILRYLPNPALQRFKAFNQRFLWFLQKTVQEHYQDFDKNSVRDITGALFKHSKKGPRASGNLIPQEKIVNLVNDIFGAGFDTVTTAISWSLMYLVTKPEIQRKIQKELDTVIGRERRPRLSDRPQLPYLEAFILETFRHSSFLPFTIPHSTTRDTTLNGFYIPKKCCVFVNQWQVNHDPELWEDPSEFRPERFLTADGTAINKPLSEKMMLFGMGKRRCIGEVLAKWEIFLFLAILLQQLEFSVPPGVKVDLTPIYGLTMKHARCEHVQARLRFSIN

[10] = biological target: Cytochrome P450 3A4 (Homo sapiens, UniProt P08684);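 note: CYP3A4 tested as one member of a cytochrome P450 panel screen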
[11] = biological target: Cytochrome P450 2C9 (Homo sapiens, UniProt P11712)
[12] = biological target: T3, RNA-binding protein pos-1 (Caenorhabditis elegans, UniProt G5EF15); experiment: disruptors of C. elegans POS-1 RNA interaction – biochemical, fluorescence polarization, dose response (AID 1964);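 note: purified POS-1 fused to maltose binding protein made in E. coli; potency of compounds blocking POS-1 binding to fluorescent RNA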
T3 sequence (G5EF15 whole entry): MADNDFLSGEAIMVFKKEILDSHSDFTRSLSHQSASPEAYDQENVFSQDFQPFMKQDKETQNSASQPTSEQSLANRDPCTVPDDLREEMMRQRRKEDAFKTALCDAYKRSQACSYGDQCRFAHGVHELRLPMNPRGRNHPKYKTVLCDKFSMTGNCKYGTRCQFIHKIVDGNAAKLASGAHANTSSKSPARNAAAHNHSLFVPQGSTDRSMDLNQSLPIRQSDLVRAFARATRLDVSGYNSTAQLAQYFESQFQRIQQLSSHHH

[13] = biological target: T4, Zinc finger protein mex-5 (Caenorhabditis elegans, UniProt Q9XUB2); experiment: potency of MEX-5 RNA-binding blockers – biochemical, C. elegans, fluorescence polarization, dose response (AID 1960)
T4 sequence (Q9XUB2 whole entry): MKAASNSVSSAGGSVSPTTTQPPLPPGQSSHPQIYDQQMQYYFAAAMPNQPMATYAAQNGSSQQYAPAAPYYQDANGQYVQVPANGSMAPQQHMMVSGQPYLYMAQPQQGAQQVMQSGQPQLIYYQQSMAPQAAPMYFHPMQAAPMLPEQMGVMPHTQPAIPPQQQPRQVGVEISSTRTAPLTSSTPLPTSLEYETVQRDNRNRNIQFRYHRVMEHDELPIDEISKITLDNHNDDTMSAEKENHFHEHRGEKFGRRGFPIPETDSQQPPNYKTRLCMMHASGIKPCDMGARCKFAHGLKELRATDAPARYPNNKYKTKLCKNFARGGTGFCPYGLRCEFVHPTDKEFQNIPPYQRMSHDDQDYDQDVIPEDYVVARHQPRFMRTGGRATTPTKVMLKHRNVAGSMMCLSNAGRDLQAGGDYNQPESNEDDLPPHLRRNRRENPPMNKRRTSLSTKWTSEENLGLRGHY

[14] = biological target: Cytochrome P450 2C19 (Homo sapiens, UniProt P33261); experiment: Cytochrome panel assay with activity outcomes. Panel member name: p450-cyp2c19 Compounds with AC50 equal or less than 10 uM are considered active; type: functional; conditions: read-out: AC50
[15] = tested on: H4; experiment: Luminescence Cell-Based Dose Response HTS to Identify Activators of 5'UTR Stem-Loop Driven Prion Protein mRNA Translation in H4 Neuroglioblastoma Cells. [Related pubchem assays: 1829 (Project Summary), 1814 (Primary HTS)]; type: functional; conditions: Homo sapiens
[16] = biological target: Cytochrome P450 2D6 (Homo sapiens, UniProt P10635);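 note: CYP2D6 member of a cytochrome P450 panel assay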
Chain of Cytochrome P450 2D6 (P10635 whole entry): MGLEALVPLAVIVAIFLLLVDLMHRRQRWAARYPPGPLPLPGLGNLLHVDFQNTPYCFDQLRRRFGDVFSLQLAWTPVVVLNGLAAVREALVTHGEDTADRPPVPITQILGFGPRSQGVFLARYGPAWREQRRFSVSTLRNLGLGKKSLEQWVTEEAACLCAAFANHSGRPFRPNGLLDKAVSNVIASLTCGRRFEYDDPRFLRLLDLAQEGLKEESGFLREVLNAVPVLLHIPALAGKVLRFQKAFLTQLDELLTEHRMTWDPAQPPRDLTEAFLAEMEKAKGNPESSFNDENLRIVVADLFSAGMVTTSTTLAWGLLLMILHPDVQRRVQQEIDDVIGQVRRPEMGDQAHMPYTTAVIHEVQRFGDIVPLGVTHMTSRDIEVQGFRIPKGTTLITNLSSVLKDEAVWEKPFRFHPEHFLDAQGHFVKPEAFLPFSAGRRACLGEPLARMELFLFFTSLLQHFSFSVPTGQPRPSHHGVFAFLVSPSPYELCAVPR

Chain of Cytochrome P450 3A4 (P08684 whole entry): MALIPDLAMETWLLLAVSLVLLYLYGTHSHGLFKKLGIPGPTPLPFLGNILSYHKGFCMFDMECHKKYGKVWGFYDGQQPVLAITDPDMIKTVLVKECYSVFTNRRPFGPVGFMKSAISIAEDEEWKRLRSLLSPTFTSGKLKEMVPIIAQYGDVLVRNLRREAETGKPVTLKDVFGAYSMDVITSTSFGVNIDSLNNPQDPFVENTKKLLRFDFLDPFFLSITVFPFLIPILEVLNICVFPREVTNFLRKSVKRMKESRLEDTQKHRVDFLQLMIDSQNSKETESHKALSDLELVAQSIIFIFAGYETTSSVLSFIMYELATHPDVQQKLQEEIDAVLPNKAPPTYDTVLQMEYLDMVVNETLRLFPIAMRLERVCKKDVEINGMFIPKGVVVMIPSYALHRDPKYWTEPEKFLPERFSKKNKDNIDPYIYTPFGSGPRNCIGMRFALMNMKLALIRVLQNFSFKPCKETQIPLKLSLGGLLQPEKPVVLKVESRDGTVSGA
Chain of Cytochrome P450 2C19 (P33261 whole entry): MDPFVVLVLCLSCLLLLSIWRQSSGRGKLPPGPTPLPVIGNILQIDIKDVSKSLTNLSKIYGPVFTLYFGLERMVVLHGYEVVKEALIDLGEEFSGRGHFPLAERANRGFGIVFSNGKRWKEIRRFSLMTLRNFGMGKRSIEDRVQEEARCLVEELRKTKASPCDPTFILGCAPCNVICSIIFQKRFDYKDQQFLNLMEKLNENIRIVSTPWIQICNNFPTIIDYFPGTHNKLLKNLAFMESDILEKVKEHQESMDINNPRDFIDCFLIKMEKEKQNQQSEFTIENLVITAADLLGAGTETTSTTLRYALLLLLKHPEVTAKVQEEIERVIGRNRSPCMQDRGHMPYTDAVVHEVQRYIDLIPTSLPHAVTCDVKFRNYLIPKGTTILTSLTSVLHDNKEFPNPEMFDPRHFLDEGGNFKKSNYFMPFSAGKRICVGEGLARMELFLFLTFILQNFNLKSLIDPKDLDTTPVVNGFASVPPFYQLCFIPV
Chain of Cytochrome P450 2C9 (P11712 whole entry, the tested form may be a part): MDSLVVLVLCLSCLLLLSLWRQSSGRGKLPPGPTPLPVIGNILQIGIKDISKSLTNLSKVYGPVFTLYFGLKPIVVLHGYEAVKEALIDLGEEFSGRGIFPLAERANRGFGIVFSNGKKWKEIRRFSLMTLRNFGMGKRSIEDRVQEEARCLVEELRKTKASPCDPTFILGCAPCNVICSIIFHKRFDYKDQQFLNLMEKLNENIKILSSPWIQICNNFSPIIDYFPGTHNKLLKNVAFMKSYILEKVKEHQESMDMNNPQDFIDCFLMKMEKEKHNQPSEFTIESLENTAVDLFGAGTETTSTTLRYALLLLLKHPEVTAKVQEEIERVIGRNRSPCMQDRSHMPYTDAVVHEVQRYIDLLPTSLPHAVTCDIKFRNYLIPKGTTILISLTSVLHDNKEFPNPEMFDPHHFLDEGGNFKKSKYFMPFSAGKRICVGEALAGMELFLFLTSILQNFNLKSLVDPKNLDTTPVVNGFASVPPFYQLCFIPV

## CCOC(=O)c1c(NC=C2C(=O)CCCC2=O)sc(C)c1C
[1]
  IC50: 102 µM (active)

## CC(C)(C)NC(=O)C(c1ccncc1)N(Cc1ccc(F)cc1)C(=O)c1ccc(-c2ccccc2)[nH]1 (centres undefined)
[2]
  EC50: > 60 µM (inconclusive)
[3]
  EC50: 0.681 µM (active)
[4]
  CC50: 14.6 µM (active)

## CCc1c(C)nc(N)n2c(SCC(=O)Nc3ccccc3OC)nnc12
[5]
  EC50: > 120 µM (not active)
[6]
  EC50: > 120 µM (not active)
[7]
  EC50: > 120 µM (not active)

## COC(=O)CCNCCSc1nnc(-c2ccco2)n1Cc1ccccc1
[1]
  IC50: 98.5 µM (active)

## Cc1cc(NCCCn2ccnc2)n2nc(C)c(-c3ccc(Cl)cc3)c2n1
[8]
  AC50: 6.35 µM (active)

## COc1ccc(/C=C\C(=O)Nc2ccccc2C(=O)O)cc1OC
[9]
  AC50: 39.8 µM (inconclusive)
[10]
  AC50: 39.8 µM (inconclusive)
[11]
  AC50: 15.8 µM (inconclusive)

## O=c1c2[nH]cnc2n(-c2ccc(F)cc2)c(=O)n1Cc1ccccc1
[5]
  EC50: 39.3 µM (active)
[6]
  EC50: > 120 µM (not active)
[7]
  EC50: > 120 µM (not active)

## COc1ccc(-c2nc3cnc(N4CCNCC4)nc3n(CCC#N)c2=O)cc1
[9]
  AC50: 15.8 µM (inconclusive)
[10]
  AC50: 12.6 µM (inconclusive)

## O=C(/C=C/c1ccc(O)c(O)c1)OC(Cc1ccc(O)c(O)c1)C(=O)O (centres undefined)
[1]
  IC50: 35 µM (active)
[12]
  EC50: 13.6 µM (active)
[13]
  EC50: 8.75 µM (active)

## Nc1nc(SCc2ccc([N+](=O)[O-])cc2)c2ncn([C@@H]3O[C@@H](CO)[C@@H](O)[C@H]3O)c2n1
[10]
  AC50: 15.8 µM (inconclusive)

## O=C(NCCCN1CCCC1=O)Nc1ccc(F)c(Cl)c1
[14]
  AC50: 39.8 µM (inconclusive)
[9]
  AC50: 22.4 µM (inconclusive)
[10]
  AC50: 28.2 µM (inconclusive)

## Cc1ccc(-c2csc(NC(=S)NC(=O)/C=C/c3ccco3)n2)cc1
[10]
  AC50: 15.8 µM (inconclusive)
[11]
  AC50: 0.282 µM (inconclusive)

## CC(C)CCn1cnc2c(c1=O)c1nc3ccccc3nc1n2Cc1ccc2c(c1)OCO2
[5]
  EC50: > 120 µM (not active)
[6]
  EC50: > 120 µM (not active)
[7]
  EC50: > 120 µM (not active)

## CCOC(=O)c1ccc(-c2ccc(/C=N/NC(=O)c3cncc(Br)c3)o2)cc1
[15]
  EC50: 117 µM (active)

## COc1cc(/C(C)=N\NC(=O)CSc2nc3ccccc3n2C)ccc1O
[1]
  IC50: 41.6 µM (active)

## O=C(COCC(=O)Nc1cccc(C(F)(F)F)c1)Nc1cccc(C(F)(F)F)c1
[8]
  AC50: 5.16 µM (active)

## C=CCC(C)(NCc1ccccc1)c1ccco1 (centres undefined)
[10]
  AC50: 15.8 µM (inconclusive)
[11]
  AC50: 0.0355 µM (inconclusive)

## O=C1C(Cc2ccccc2)NC(=S)N1c1ccccc1 (centres undefined)
[9]
  AC50: 2.24 µM (inconclusive)
[10]
  AC50: 2.24 µM (inconclusive)

## COc1cc(/C=N/NC(=O)c2ccc(CN(C)S(=O)(=O)c3ccc(C)cc3)cc2)ccc1O
[8]
  AC50: 2.5 µM (active)

## CCOC(=O)C1=C(C)N2C(=C(C#N)[C@@H]1c1ccc(C(=O)OC)cc1)SC[C@@]2(O)C(C)(C)C
[8]
  AC50: 0.33 µM (active)

## CCOc1ccc(N(C(C)C(=O)NC(C)CC)S(C)(=O)=O)cc1 (centres undefined)
[14]
  AC50: 7.94 µM (inconclusive)
[10]
  AC50: 14.1 µM (inconclusive)

## CC(C)C(=O)Nc1cc2c(cc1C(=O)c1ccccc1)OCCO2
[10]
  AC50: 22.4 µM (inconclusive)

## Cc1c(C(=O)N/N=C/c2ccccc2)sc(=S)n1C
[14]
  AC50: 25.1 µM (inconclusive)
[16]
  AC50: 0.01 µM (inconclusive)
[10]
  AC50: 25.1 µM (inconclusive)

## CCCOc1ccc(NC(=O)CC2C(=O)N(c3ccc(OCC)cc3)C(=S)N2C2CC2)cc1 (centres undefined)
[5]
  EC50: > 120 µM (not active)
[6]
  EC50: > 120 µM (not active)
[7]
  EC50: 12.1 µM (active)

## O=C(Nc1ccc(-c2csc(Nc3cccc(C(F)(F)F)c3)n2)cc1)c1ccccc1
[2]
  EC50: 7.93 µM (active)
[3]
  EC50: 0.859 µM (active)
[4]
  CC50: 17.2 µM (active)
[8]
  AC50: 1.54 µM (active)

## Cc1ccc(C(=O)NC2CCCCCC2)cc1N1CCCC1=O
[10]
  AC50: 25.1 µM (inconclusive)
[11]
  AC50: 25.1 µM (inconclusive)

## CCN(CC)Cc1c(C(=O)N/N=C/c2cccc(OCc3cccc(Cl)c3)c2)nnn1-c1nonc1N
[4]
  CC50: 18.3 µM (active)

## Nc1ccc(C(=O)n2c3ccccc3c3ccccc32)cc1
[5]
  EC50: 9.6 µM (active)
[6]
  EC50: 9.05 µM (active)

## Nc1ccc(Sc2ccc(N)cc2)cc1 [4,4'-THIODIANILINE]
[1]
  IC50: 13.2 µM (active)

## N#Cc1ccc(CN2CCC3(CC2)CCN(C(=O)c2ccncc2)CC3)cc1
[10]
  AC50: 12.6 µM (inconclusive)

## Cc1ccc2sc(O)nc2c1
[4]
  CC50: 19.7 µM (active)

## COc1ccccc1NC(=O)COc1ccc(Br)cc1CO
[4]
  CC50: > 50 µM (active)

## CCOc1ccc(NC2c3ccccc3C(=O)N2Cc2ccc3c(c2)OCO3)cc1 (centres undefined)
[4]
  CC50: 14.6 µM (active)

## CCOC(=O)N/N=C/c1ccc(N2CCOCC2)s1
[1]
  IC50: 52.6 µM (active)

## CCOc1cc(/C=N/Nc2nc(O)nnc2C)ccc1O
[1]
  IC50: 40.2 µM (active)

## COc1ccc(/C=N/NC(=S)NC2CCS(=O)(=O)C2)cc1OC (centres undefined)
[10]
  AC50: 22.4 µM (inconclusive)
